Laboratory results as given in patent US20030022812A1, “Treating pain by targeting hyperpolarization-activated, cyclic nucleotide-gated channels” (priority 2001, published 2003).
“Also recorded” adds a separate entry of the source.

What was measured:
[1] = tested on: spontaneous firing of Aβ and Aδ neurons; test: In vitro single fiber recording of spontaneous discharges in excised dorsal root/DRG/spinal nerve preparation from SNL rats; format: cell-based, rat
[2] = tested on: rat carrageenan model of hindpaw inflammation; test: Thermal hyperalgesia (modified Hargreaves apparatus) in rat carrageenan model of hindpaw inflammation; format: in vivo; conditions: 10 mg/kg i.p.
Protocol: However, blockade of HCN channels with ZD7288 at 10 mg/kg, i.p., had no effect on thermal hyperalgesia (measured using a modified Hargreaves apparatus) in two different models of inflammatory pain: the rat carrageenan model of hindpaw inflammation, and the rat complete Freund's adjuvant (CFA) model of hindpaw inflammation. As shown supra, HCN blockade also had little effect on acute thermally evoked pain in the hot plate test.

human HCN1 = biological target: T1, human HCN1 (Homo sapiens, UniProt O60741); test: Two-electrode voltage clamp of Xenopus oocytes injected with human HCN1 cRNA; format: cell-based; conditions: Cs+ 3 mM; for block of HCN1 currents: n=3
T1 construct: expressed in transfected cells; host or cells: Xenopus laevis oocytes injected with cRNA transcribed from pGEMHE-human HCN1
T1 sequence (O60741 1-890): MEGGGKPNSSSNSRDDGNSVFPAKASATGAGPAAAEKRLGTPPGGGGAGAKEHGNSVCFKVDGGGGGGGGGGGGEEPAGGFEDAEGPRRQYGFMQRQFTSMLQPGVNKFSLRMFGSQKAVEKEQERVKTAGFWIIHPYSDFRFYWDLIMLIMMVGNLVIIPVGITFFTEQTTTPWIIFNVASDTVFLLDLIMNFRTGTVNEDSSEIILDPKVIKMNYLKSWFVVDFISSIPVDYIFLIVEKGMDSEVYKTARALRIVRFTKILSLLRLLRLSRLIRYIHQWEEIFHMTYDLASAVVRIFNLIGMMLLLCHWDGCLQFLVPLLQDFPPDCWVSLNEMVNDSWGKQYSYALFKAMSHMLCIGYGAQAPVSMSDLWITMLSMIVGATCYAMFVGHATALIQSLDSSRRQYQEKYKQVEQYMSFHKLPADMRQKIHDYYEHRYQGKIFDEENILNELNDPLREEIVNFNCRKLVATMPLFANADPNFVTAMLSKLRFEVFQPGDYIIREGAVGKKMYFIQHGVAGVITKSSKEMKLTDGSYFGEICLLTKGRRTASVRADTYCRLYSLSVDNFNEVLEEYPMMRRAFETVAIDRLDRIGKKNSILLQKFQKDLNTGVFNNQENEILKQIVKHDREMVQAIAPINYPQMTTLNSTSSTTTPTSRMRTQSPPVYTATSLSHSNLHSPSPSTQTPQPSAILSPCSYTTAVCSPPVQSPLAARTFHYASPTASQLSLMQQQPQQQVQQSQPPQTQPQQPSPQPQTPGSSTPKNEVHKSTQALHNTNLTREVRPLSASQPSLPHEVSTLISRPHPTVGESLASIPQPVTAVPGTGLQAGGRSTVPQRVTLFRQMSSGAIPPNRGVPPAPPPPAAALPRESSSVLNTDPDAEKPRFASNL
Protocol: Xenopus laevis oocytes were prepared and injected using standard methods previously described and known in the art [Fraser et al. (1993). Electrophysiology: a practical approach. D. I. Wallis, IRL Press at Oxford University Press, Oxford: 65-86]. Ovarian lobes from adult female Xenopus laevis (Nasco, Fort Atkinson, Wis.) were teased apart, rinsed several times in nominally Ca-free saline containing: 82.5 mM NaCl, 2.5 mM KCl, 1 mM MgCl2, 5 mM HEPES, adjusted to pH 7.0 with NaOH (OR-2), and gently shaken in OR-2 containing 0.2% collagenase Type 1 (ICN Biomedicals, Aurora, Ohio) for 2-5 hours. When approximately 50% of the follicular layers were removed, Stage V and VI oocytes were selected and rinsed in media consisting of 75% OR-2 and 25% ND-96. The ND-96 contained: 100 mM NaCl, 2 mM KCl, 1 mM MgCl2, 1.8 mM CaCl2, 5 mM HEPES, 2.5 mM Na pyruvate, gentamicin (50 ug/ml), adjusted to pH 7.0 with NaOH. […] For in vitro transcription, PGEM HE (Liman et al., (1992) Neuron 9: 861-71) containing human HCN1 was linearized with NheI and transcribed with T7 RNA polymerase (Promega) in the presence of the cap analog m7G(5′)ppp(5′)G. The synthesized cRNA was precipitated with ammonium acetate and isopropanol, and resuspended in 50 μl nuclease-free water. cRNA was quantified using formaldehyde gels (1% agarose, 1×MOPS, 3% formaldehyde) against 1,2 and 5 μl RNA markers (Gibco BRL, 0.24-9.5 Kb).
Oocytes were injected with 50 nl of human HCN1 RNA (1-10 ng). Control oocytes were injected with 50 nl of water. Oocytes were incubated for 2 days in ND-96 before analysis for expression of human HCN1. Incubations and collagenase digestion were carried out at room temperature. Injected oocytes were maintained in 48 well cell culture clusters (Costar; Cambridge, Mass.) at 18° C. Whole cell voltage-activated currents were measured 2 days after injection with a conventional two-electrode voltage clamp (GeneClamp500, Axon Instruments, Foster City, Calif.) using standard methods previously described and known in the art (Dascal et al., (1987) Pflugers Arch 409: 512-20). The microelectrodes, which had resistances of ˜1 MΩ, were filled with 3 M KCl. Cells were continuously perfused with ND96 at ˜10 ml/min at room temperature. Membrane voltage was clamped at −30 mV unless indicated.
Oocytes were challenged with a series of hyperpolarizing voltage steps from a holding potential of −30 mV. Voltage steps (800 msec duration) to −40 through −180 mV in 20 mV intervals were applied to oocytes at a sampling rate of […]. Hyperpolarizing voltage steps activated an inward current having a threshold of about −60 mV. […] Cs^+ blocked HCN1 currents by 94, 92 and 90% when Ih was evoked by stepping to −80, −100 and −120 mV, respectively. […]

SMILES	suppression of spontaneous (ectopic) discharges of Aβ fibers ([1]; 100 μM bath application for 5 min)	effect on spontaneous firing of Aδ fiber ([1]; 100 micromolar)	time to complete suppression of ectopic firing, Aβ fiber ([1]; 100 micromolar) [min]	conduction blockade of evoked action potentials ([1]; after application of ZD7288)	effect on thermal hyperalgesia [2]	effect on endogenous oocyte inward currents (human HCN1)	block of HCN1 currents (human HCN1; Ih evoked by stepping to −80 mV) [%]	block of HCN1 currents (human HCN1; Ih evoked by stepping to −100 mV) [%]	block of HCN1 currents (human HCN1; Ih evoked by stepping to −120 mV) [%]
CCN(c1ccccc1)c1cc(=NC)n(C)c(C)n1.Cl [ZD7288]	complete suppression; also recorded: completely suppressed	attenuation of firing	3 to 4	no conduction blockade	no effect				
[Cl-].[Cs+] [Cs^+, CsCl]						no effect	94	92	90
